According to patent US20240239788A1, “SMALL MOLECULE INHIBITORS OF KRAS G12D MUTANT” (Merck Sharp & Dohme LLC, priority 2021, published 2024):
Counter-ions that a name gives are not always drawn. Like-named read-outs stand apart in the source and are kept apart here.

What was measured:
[1] = molecular target: KRAS protein containing G12D mutation (Homo sapiens (Human), UniProt P01116, G12D); assay: SOS-catalyzed nucleotide exchange assay (GNE), TR-FRET; assay type: biochemical; conditions: biotinylated KRAS G12D, SOS and GTP, 60-minute incubation
Experimental: Compounds are added to this complex and then after a 60-minute incubation time the mixture is treated with SOS and unlabeled GTP. Small molecule inhibitors stabilize the Bodipy-GDP complex whereas the untreated protein rapidly exchanges Bodipy-GDP for unlabeled GTP resulting in reduced TR-FRET signal.
This solution is referred to as biotinylated KRAS G12D stock solution.

[2] = system: AsPC-1 cells containing homozygous KRAS-G12D activating mutation; assay: Cellular phospho-ERK assay with 10% FBS (Examples 107a-256); assay type: cell-based
Experimental: 5% CO2 for 2 hours. […] Assay plates were read on a EnVision Multimode Plate Reader (PerkinElmer) and the ratio of p-Erk vs total Erk in each well was used as the final readout.

[3] = read-out: IC50 (nM) pERK (cell with FBS 10%), AsPC-1 cells, 10% fetal bovine serum, 2 hours, ratio of p-Erk vs total Erk
[4] = Homo sapiens, ASPC1, 2 h, read-out: IC50 (nM) pERK (cell with FBS 10%), AsPC-1 cells, 10% fetal bovine serum, 2 hours, ratio of p-Erk vs total Erk
[5] = read-out: IC50 (nM) pERK (cell with FBS 10%), AsPC-1 cells, 10% fetal bovine serum, 2 hours, ratio of p-Erk vs total Erk, TFA

KRAS protein containing G12D mutation, sequence (P01116 other isoform, or with tags, fused parts or gaps G12D (already in the parent)): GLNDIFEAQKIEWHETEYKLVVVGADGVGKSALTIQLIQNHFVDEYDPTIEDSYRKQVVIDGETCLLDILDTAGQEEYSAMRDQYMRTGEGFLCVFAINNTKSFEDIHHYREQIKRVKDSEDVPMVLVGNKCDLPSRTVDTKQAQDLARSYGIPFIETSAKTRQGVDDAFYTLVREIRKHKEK

| SMILES | IC50 [1] [nM] | IC50 [2, 3] [nM] | IC50 [2, 4] [nM] | IC50 [2, 5] [nM] |
| --- | --- | --- | --- | --- |
| C[C@]12CCC(CN(c3nc(OC[C@]4(CN[C@@H]5CC[C@H](O)C5)CC4(F)F)nc4c(F)c(-c5cc(O)cc6cccc(Cl)c56)c(F)cc34)C1)N2 (single isomer, unassigned) [Ex. 219a] | 3.27 | 1250 |  |  |
| C[C@]12CCC(CN(c3nc(OC[C@]4(CN[C@@H]5CC[C@H](O)C5)CC4(F)F)nc4c(F)c(-c5cc(O)cc6cccc(Cl)c56)c(F)cc34)C1)N2 (single isomer, unassigned) [Ex. 219b] | 627 | 9380 |  |  |
| CN(C[C@@]1(COc2nc(N3CC4CC[C@@](C)(C3)N4)c3cc(F)c(-c4cc(O)cc5cccc(Cl)c45)c(F)c3n2)CC1(F)F)C1COC1 (single isomer, unassigned) [Ex. 220] | 470 |  | 7830 |  |
| COCCOCC1CCN(C[C@@]2(COc3nc(N4CC5CC[C@@](C)(C4)N5)c4cc(F)c(-c5c(C(F)(F)F)c(C)cc6[nH]ncc56)c(F)c4n3)CC2(F)F)C1 (single isomer, unassigned) [Ex. 222] | 8.84 |  | 2880 |  |
| Cc1cc2[nH]nc(C#N)c2c(-c2c(F)cc3c(N4C[C@H]5CC[C@@H](C4)N5)nc(OC[C@@]45CCCN4C[C@H](F)C5)nc3c2F)c1C(F)(F)F (single isomer, unassigned) [Ex. 227a] | 190 | 1520 |  |  |
| C[C@]12CCC(CN(c3nc(OC[C@@]45CCCN4C[C@H](F)C5)nc4c(F)c(-c5cc(O)cn6ncc(Cl)c56)c(F)cc34)C1)N2 (single isomer, unassigned) [Ex. 230a, TFA] | 30.9 |  |  | 1450 |
| C[C@]12CCC(CN(c3nc(OC[C@@]45CCCN4C[C@H](F)C5)nc4c(F)c(-c5cc(O)cn6ncc(Cl)c56)c(F)cc34)C1)N2 (single isomer, unassigned) [Ex. 230b, TFA] | 162 |  |  | 9100 |
| Nc1cc(-c2c(F)cc3c(N4CC5CCC(C4)N5)nc(OC[C@@]45CCCN4C[C@H](F)C5)nc3c2F)c2c(Cl)cccc2n1 (single isomer, unassigned) [Ex. 231a] | 1490 | 9300 |  |  |
| Nc1cc(-c2c(F)cc3c(N4CC5CCC(C4)N5)nc(OC[C@@]45CCCN4C[C@H](F)C5)nc3c2F)c2c(Cl)cccc2n1 (single isomer, unassigned) [Ex. 231b] | 38.4 | 326 |  |  |
| Cc1cc2[nH]nc(C)c2c(-c2c(F)cc3c(N4CC5CCC(C4)N5)nc(OC[C@@]45CCCN4C[C@H](F)C5)nc3c2F)c1OC(F)(F)F (single isomer, unassigned) [Ex. 232a] | 932 | 30000 |  |  |
| Cc1cc2[nH]nc(C)c2c(-c2c(F)cc3c(N4CC5CCC(C4)N5)nc(OC[C@@]45CCCN4C[C@H](F)C5)nc3c2F)c1OC(F)(F)F (single isomer, unassigned) [Ex. 232b] | 5.9 | 155 |  |  |
| Oc1cc(Cl)c(C(F)(F)F)cc1-c1c(F)cc2c(N3CC4CCC(C3)N4)nc(OC[C@@]34CCCN3C[C@H](F)C4)nc2c1F (single isomer, unassigned) [Ex. 256] | 246 |  | 5870 |  |
| C[C@]12CC[C@H](CN(c3nc(OCC45CCCN4CCC(F)(F)C5)nc4c(F)c(-c5cc(O)cc6cccc(Cl)c56)c(F)cc34)C1)N2 (single isomer, unassigned) [Example 116b] | 473 |  | 14000 |  |
| Cc1cc2[nH]ncc2c(-c2c(F)cc3c(N4CC5CCC(C4)N5)nc(OC[C@@]45CCCN4C[C@H](F)C5)nc3c2F)c1OC(F)(F)Cl (single isomer, unassigned) [compound 253] | 1.74 |  | 111 |  |
| C[C@]12CCC(CN(c3nc(OCC45CCCN4CC(F)C5)nc4c(F)c(-c5nc(N)cc6cccc(Cl)c56)c(F)cc34)C1)N2 (stereo in doubt) [Ex. 131, 8-chloro-1-(6,8-difluoro-2-(((2S,7aR)-2-fluorotetrahydro-1H-pyrrolizin-7a(5H)-yl)methoxy)-4-((1S,5R)-1-methyl-3,8-diaza-bicyclo[3.2.1]octan-3-yl)quinazolin-7-yl) isoquinolin-3-amine] | 188 |  | 6980 |  |
| CN(C)C[C@@]1(COc2nc(N3C[C@H]4CC[C@@](C)(C3)N4)c3cc(C#N)c(-c4cc(O)cc5ccccc45)c(F)c3n2)CC1(F)F [136b, 2-(((R)-1-((dimethylamino)methyl)-2,2-difluorocyclopropyl)methoxy)-8-fluoro-7-(3-hydroxynaphthalen-1-yl)-4-((1S,5R)-1-methyl-3,8-diazabicyclo[3.2.]octan-3-yl)quinazoline-6-carbonitrile] | 32.4 | 2380 |  |  |
| C#Cc1cccc2c(F)c(O)cc(-c3c(F)cc4c(N5C[C@H]6CC[C@@](C)(C5)N6)nc(OC[C@@]56CCCN5C[C@H](F)C6)nc4c3F)c12 [202a, 4-(6,8-difluoro-2-(((2R,7aS)-2-fluorotetrahydro-1H-pyrrolizin-7a(5H)-yl)methoxy)-4-((1.5R)-1-methyl-3,8-diazabicyclo[3.2.1]octan-3-yl)quinazolin-7-yl)-5-ethynyl-1-fluoronaphthalen-2-ol] | 302 | 11500 |  |  |
| C#Cc1cccc2c(F)c(O)cc(-c3c(F)cc4c(N5C[C@H]6CC[C@@](C)(C5)N6)nc(OC[C@@]56CCCN5C[C@H](F)C6)nc4c3F)c12 [202b, 4-(6,8-difluoro-2-(((2R,7aS)-2-fluorotetrahydro-1H-pyrrolizin-7a(5H)-yl)methoxy)-4-((1S,5R)-1-methyl-3,8-diazabicyclo[3.2.1]octan-3-yl)quinazolin-7-yl)-5-ethynyl-1-fluoronaphthalen-2-ol] | 3.94 |  | 302 |  |
| C[C@]12CCC(CN(c3nc(OC[C@H]4CC[C@@]5(CO)CCCN45)nc4c(F)c(-c5cc(O)cc6cccc(Cl)c56)c(F)cc34)C1)N2 [243a, 5-chloro-4-(6,8-difluoro-2-(((38,7aS)-7a-(hydroxymethyl)hexahydro-1H-pyrrolizin-3-yl)methoxy)-4-((1S,5R)-1-methyl-3,8-diazabicyclo[3.2.1]octan-3-yl)quinazolin-7-yl)naphthalen-2-ol] | 346 |  | 30000 |  |
| CN(C)CC1(COc2nc(N3C[C@H]4CC[C@@](C)(C3)N4)c3cc(F)c(-c4cc(O)cc5ccccc45)c(F)c3n2)CC1C(=O)O (stereo partly drawn) [Ex. 107, 2-(((6,8-difluoro-7-(3-hydroxynaphthalen-1-yl)-4-((1S,5R)-1-methyl-3,8-diazabicyclo[3.2.1]octan-3-yl)quinazolin-2-yl)oxy)methyl)-2-((dimethylamino)methyl)cyclopropane-1-carboxylc acid] | 25.4 | 30000 |  |  |
| Cc1cc2[nH]nc(C)c2c(-c2c(F)cc3c(N4C[C@H]5CC[C@@H](C4)N5)nc(OCC4(CN5CCOCC5)CC4)nc3c2F)c1OC(F)F [Ex. 127, 4-((1-(((4-((1R,5S)-3,8-diazabicyclo[3.2.1]octan-3-yl)-7-(5-(difluoromethoxy)-3,6-dimethyl-1H-indazol-4-yl)-6,8-difluoroquinazolin-2-yl)oxy)methyl)cyclopropyl)methyl) morpholine] | 39 |  | 3600 |  |
| Nc1cc2cccc(Cl)c2c(-c2c(F)cc3c(N4C[C@H]5CC[C@@H](C4)N5)nc(OC[C@@]45CCCN4C[C@H](F)C5)nc3c2F)n1 [Ex. 132, 1-(4-((1R,5S)-3,8-diazabicyclo[3.2.1]octan-3-yl)-6,8-difluoro-2-(((2R,7aS)-2-fluorotetrahydro-1H-pyrrolizin-7a(5H)-yl)methoxy)quinazolin-7-yl)-8-chloroisoquinolin-3-amine] | 347 |  | 5580 |  |
| Nc1cnc(C(F)(F)F)c(-c2c(F)cc3c(N4C[C@H]5CC[C@@H](C4)N5)nc(OC[C@@]45CCCN4C[C@H](F)C5)nc3c2F)n1 [Ex. 134, 6-(4-((1R,5S)-3,8-diazabicyclo[3.2.1]octan-3-yl)-6,8-difluoro-2-(((2R,7aS)-2-fluorotetrahydro-1H-pyrrolizin-7a(5H)-yl)methoxy)quinazolin-7-yl)-5-(trifluoromethyl)pyrazin-2-amine] | 870 |  | 13600 |  |
| Cc1nc(N)nc(-c2c(F)cc3c(N4C[C@H]5CC[C@@H](C4)N5)nc(OC[C@@]45CCCN4C[C@H](F)C5)nc3c2F)c1C(F)(F)F [Ex. 135, 4-(4-((1R,5S)-3,8-diazabicyclo[3.2.1]octan-3-yl)-6,8-difluoro-2-(((2R,7aS)-2-fluorotetrahydro-1H-pyrrolizin-7a(5H)-yl)methoxy)quinazolin-7-yl)-6-methyl-5-(trifluoromethyl)pyrimidin-2-amine] | 54.6 |  | 469 |  |
| CN(C)C[C@@]1(COc2nc(N3C[C@H]4CC[C@@](C)(C3)N4)c3cc(C#N)c(-c4cc(O)cc5ccccc45)c(F)c3n2)CC1(F)F [Ex. 136a, 2-(((R)-1-((dimethylamino)methyl)-2,2-difluorocyclopropyl)methoxy)-8-fluoro-7-(3-hydroxynaphthalen-1-yl)-4-((1S,5R)-1-methyl-3,8-diazabicyclo[3.2.]octan-3-yl)quinazoline-6-carbonitrile] | 4.93 | 645 |  |  |
| Cc1cc2[nH]ncc2c(-c2c(F)cc3c(N4CC5CCC(C4)N5)nc(OC[C@@]45CCCN4C[C@H](F)C5)nc3c2F)c1C(F)(F)F [Ex. 140, 4-((1R,5S)-3,8-diazabicyclo[3.2.1]octan-3-yl)-6,8-difluoro-2-(((2R,7aS)-2-fluorotetrahydro-1H-pyrrolizin-7a(5H)-yl)meth-oxy)-7-(6-methyl-5-(trifluoromethyl)-1H-indazol-4-yl)quin-azoline, TFA] | 3.88 |  | 113 |  |
